The nature of series [1]: Solubility (physico-chemical properties). Format: physicochemical. The settings on record: for solubility: organic solvent or mixture, in DMSO and in chloroform, read-out: solubility in organic solvents.
In another series the test system is Jurkat cells. The series is described as follows: Evaluation of cellular viability by MTT assay. Format: cell-based, human. The settings on record: for Growth inhibition (% of control): 10 µM, incubated 18-24 hr, MTT, absorbance 570 nm. On the procedure:
Jurkat, an acute T-lymphoblastic leukemia cell line generated from a person, have been used. Cell culture have been cultured in RPMI-1640 culture medium containing 10% FBS.
Jurkat cells were cultured at 1x10^5 cells/ml in RPMI 1640 medium supplemented with 10% fetal bovine serum (FBS), 2mM L-glutamine and 100 U/ml penicillin + 100 ug/ml streptomycin.
To detect drug effect in vitro, MTT [3-(4,5-dimethylthiazol-2-yl)-2,5-diphenyltetrazolium bromide] assay was used as described (Carmichael J et al., 1987 Cancer Res. 47, 936-42). Briefly, cells were seeded in triplicate on 96-well culture plates at a density of 20000 cells/well. The drugs were added in order to have the final concentration of 10 µM (1 µl of a solution of 10mM in DMSO) and incubated for 18-24 hr. Then MTT (0.5 mg/ml) was added to each well, and plates were incubated for an additional 1 to 3 hr in the dark at 37 °C. After this time the MTT solution was aspirated from the wells and 0.1 ml of DMSO was added. The plates were allowed to stand for 10 min, and then the absorbance was determined in a SpectraCount (Packard) microplate reader at 570 nm. The drug effect was determined by comparing absorbances of treated and untreated cells.

Series [2] has as its system reverse passive Arthus reaction, mouse ear pinna. The series is described as follows: Reverse passive Arthus reaction (RPA) in the mouse ear pinna: oedema and Evans blue extravasation. The format is in vivo. The settings on record: for Extravasation / Riduction % (extravasation): 10 mg/Kg i.p.; for Extravasation: Evans blue density at 620 nm in ear homogenate supernatant, Vehicle 0,90±0,06, Naïve 0,04±0,01; for Oedema (mg): 10 mg/Kg intraperitoneally 1 hour before induction, weight increase of 8 mm punch vs contralateral ear, three hours after antigen, Vehicle 49,8 ± 1,2, Naive 23,7 ± 1,2; for Riduction % (extravasation): reduction of extravasation versus Vehicle (0). The source says: The Arthus model (RPA) is a model of immune-complex mediated tissue damage that involves the passive subcutaneous introduction of an antibody and the systemic administration of the corresponding antigen. This inflammatory model has been used to test the in vivo activity of the synthesised molecules.
The reverse passive Arthus reaction is induced, in the mouse ear pinna, by the subcutaneous injection of an excess of IgG anti human albumin followed by i.v. adiministration of the corresponding Ag (i.e. human albumin) together with Evans blue, 2 mg for each mouse, for the evaluation of extravasation.
The tested molecules were solubilised in DMSO, cremophor and PBS in a ratio of 1:1:18 and administered usually by intraperitonelly at the dosage of 10 mg/Kg 1 hour before the induction of anafilactic reaction. The animals were sacrificed 3 hours after the molecule administration.
The oedema and the extravasations are evaluated tree hours after the i.v. administration of the antigen. The oedema is evaluated as the increase of weight of lesioned ear area dissected by a 8 mm biopsy punch as compared to the contralateral unlesioned auricular tissues. The extravasation is measured determining the Evans blue density at 620 nm in the supernatants deriving from ear homogenates following centrifugation at 10000 x g for 20 min.

A word on the solubility: it is how much of the substance goes into solution per volume. On to `CCCCCCCCCCCCCCCC(=O)OCC(C)C` [Example 31, iso-butyl-palmitate], for which, in series [1], the solubility was > 10000 µg/mL and the solubility in water entry is “scarcely soluble”.

For the molecule `CCCCCCCC/C=C\CCCCCCCC(=O)NC(C)C` [Example 5, N-Isopropyl-oleyl amide], the “Growth inhibition (% of control)” value with Jurkat cells is 66.6 % of control. For the same molecule, in series [1], the solubility was > 10000 µg/mL and the solubility in water entry is recorded as “scarcely soluble”.

Consider `CCCCCCCCCCCCCCCC(=O)OCCCC` [Example 29, n-butyl-palmitate], for which, in series [1], the solubility was > 10000 µg/mL and the solubility in water entry was “scarcely soluble”.

For the molecule `CCCCCCCCCCCCCCCCCC(=O)NCCCC` [Example 24, N- butyl-stearoyl amide], in the series with Jurkat cells, the “Growth inhibition (% of control)” value is 32.1 % of control. Moreover, in series [2] (mouse ear), the Extravasation is on record as 0,55±0,07, the “Oedema (mg)” value was 33,6 ± 1.2 mg and the “Riduction % (extravasation)” value is recorded as 38.9%. Also, in series [1], the solubility was > 10000 µg/mL and the solubility in water result is “scarcely soluble”.

In the case of `CCCCCCCCCCCCCCCC(=O)OCCCCC` [Example 39, n-pentyl-palmitate], in series [1], the solubility was > 10000 µg/mL and the solubility in water result is reported as “scarcely soluble”.

For the molecule `CCCCCCCCCCCCCCCCCC(=O)NC1CCCCC1` [Example 16, N-cyclohexyl-stearoyl amide], the “Growth inhibition (% of control)” value in the series on Jurkat cells was 18.2 % of control. In series [2] (mouse ear), the Extravasation was 0,66±0,09, the “Oedema (mg)” value is 48,2 ± 1.8 mg and the “Riduction % (extravasation)” value was 26,7%. For the same molecule, in series [1], the solubility was > 10000 µg/mL and the solubility in water result was “scarcely soluble”.

Take `CCCCCCCCCCCCCCCCCC(=O)OCCCCC` [Example 40, n-pentyl-stearate]: in series [1], the solubility is > 10000 µg/mL and the solubility in water result is “scarcely soluble”.

Consider `CCCCCCCCCCCCCCCCCC(=O)NC1CCC1` [Example 28, N-cyclobutyl-stearoyl amide], for which, in the series on Jurkat cells, the “Growth inhibition (% of control)” value is recorded as 31.6 % of control. Also, in series [2] (mouse ear), the Extravasation was 0,31±0,12, the “Oedema (mg)” value is 40,6 ± 2.6 mg and the “Riduction % (extravasation)” value is reported as 65.6%. In addition, in series [1], the solubility was > 10000 µg/mL and the solubility in water result is listed as “scarcely soluble”.

Regarding `CCCCCCCCCCCCCCCCCC(=O)NCC(C)C` [Example 26, N-isobutyl-stearoyl amide], in series [2] (mouse ear), the Extravasation was 0,81±0,05, the “Oedema (mg)” value is recorded as 40,3 ± 0.7 mg and the “Riduction % (extravasation)” value stood at 10.0%. Further, in series [1], the solubility is > 10000 µg/mL and the solubility in water entry is “scarcely soluble”.

`CCCCCCCCCCCCCCCCCC(=O)NC1CC1` [Example 20, N-cyclopropyl-stearoyl amide]: in the series on Jurkat cells, the “Growth inhibition (% of control)” value was 64.2 % of control. In series [2] (mouse ear), the Extravasation is 0,35±0,06, the “Oedema (mg)” value is 33,1 ± 0.9 mg and the “Riduction % (extravasation)” value stood at 61.2%. Besides, in series [1], the solubility was > 10000 µg/mL and the solubility in water entry was “scarcely soluble”.

Consider `CCCCCCCCCCCCCCCC(=O)NCCCCC` [Example 33, N-pentyl-palmitoyl amide], for which the “Growth inhibition (% of control)” value in the series on Jurkat cells is given as 33.3 % of control. In series [2] (mouse ear), the Extravasation is reported as 0,72±0,06, the “Oedema (mg)” value is 43,9 ± 2.4 mg and the “Riduction % (extravasation)” value worked out at 20.0%. For the same molecule, in series [1], the solubility is > 10000 µg/mL and the solubility in water result was “scarcely soluble”.

As to `CCCCCCCCCCCCCCCCCC(=O)NCCC` [Example 18, N- propyl-stearoyl amide], in the series on Jurkat cells, the “Growth inhibition (% of control)” value was 17.3 % of control. For the same molecule, in series [2] (mouse ear), the Extravasation is given as 0,54±0,03, the “Oedema (mg)” value is 33,3 ± 0.2 mg and the “Riduction % (extravasation)” value turned out to be 40.0%. Further, in series [1], the solubility is > 10000 µg/mL and the solubility in water result is recorded as “scarcely soluble”.

For SR144528 [reference compound], the “antagonism of the anti-inflammatory effect of cannabinoid, endocannabinoid or molecules object of the invention (in words)” value in series [2] (CB2 selective antagonist) was “did not antagonize”.

Consider `CCCCCC/C=C\CCCCCCCC(=O)NC(C)C` [Example 3, N-Isopropyl-palmitoleyl amide], for which the “Growth inhibition (% of control)” value in the series on Jurkat cells is recorded as 60.5 % of control. In addition, in series [1], the solubility is > 10000 µg/mL and the solubility in water result was “scarcely soluble”.

Turning to `CCCCCCCCCCCCCCCC(=O)OCCC` [Example 8, n-propyl-palmitate], in series [1], the solubility was > 10000 µg/mL and the solubility in water result was “scarcely soluble”.

In the case of `CCCCCCCCCCCCCCCC(=O)NC1CCCC1` [Example 37, N-cyclopentyl-palmitoyl amide], the “Growth inhibition (% of control)” value with Jurkat cells is reported as 32.1 % of control. Moreover, in series [2] (mouse ear, 10 mg/kg), the Extravasation is 0,64±0,13, the “Oedema (mg)” value is 36,2 ± 0.9 mg and the “Riduction % (extravasation)” value came out at 52.5%. Besides, in series [1], the solubility is > 10000 µg/mL and the solubility in water result is “scarcely soluble”.

Take `CCCC(C)(C)c1ccc2c(c1)OC(C)(C)[C@@H]1CC=C(C)C[C@@H]21` [JWH 133, reference compound]: in the series on Jurkat cells, the “cellular death in vitro (in words)” value is given as “unable” and the “Growth inhibition (% of control)” value is listed as 2.0 % of control. In series [2] (mouse ear), the “reduction of oedema in vivo (in words)” value is given as “unable”. In addition, in series [2] (mouse ear, i.p.), the “reduction of extravasation in vivo (in words)” value is given as “unable”.

On to `CCCCCCCCCCCCCCCC(=O)OC1CCCC1` [Example 41, cyclopentyl-palmitate], for which, in series [1], the solubility is > 10000 µg/mL and the solubility in water result is “scarcely soluble”.

Take `CCCCCCCCCCCCCCCC(=O)NCCCC` [Example 23, N-butyl-palmitoyl amide]: in the series with Jurkat cells, the “Growth inhibition (% of control)” value is listed as 36.0 % of control. Also, in series [2] (mouse ear), the Extravasation is 0,59±0,08, the “Oedema (mg)” value is 35,2 ± 1.7 mg and the “Riduction % (extravasation)” value was found to be 34.5%. In series [1], the solubility was > 10000 µg/mL and the solubility in water result is listed as “scarcely soluble”.

With `CCCCCCCCCCCCCCCCCC(=O)OCC(C)C` [Example 32, iso-butyl-stearate], in series [1], the solubility was > 10000 µg/mL and the solubility in water entry is given as “scarcely soluble”.

For `CCCCCCCCCCCCCCCCCC(=O)OCCCC` [Example 30, n-butyl-stearate], in series [1], the solubility is > 10000 µg/mL and the solubility in water result is listed as “scarcely soluble”.

On to `CCCCCCCCCCCCCCCCCCCC(=O)NC(C)C` [Example 6, N-Isopropyl-arachidyl amide], for which, in the series on Jurkat cells, the “Growth inhibition (% of control)” value is reported as 41.0 % of control. Besides, in series [1], the solubility was > 10000 µg/mL and the solubility in water result is on record as “scarcely soluble”.

Consider `CCCCCCCC/C=C\CCCCCCCC(N)=O` [Oleylamide], for which the “Growth inhibition (% of control)” value with Jurkat cells was 22.1 % of control. Also, in series [2] (mouse ear), the Extravasation was 0,65±0,12, the “Oedema (mg)” value was 43,5 ± 2.6 mg and the “Riduction % (extravasation)” value worked out at 21.8%.

As to `CCCCCCCCCCCCCCCCCC(=O)NCCc1ccccc1` [Example 7, N-β-phenylethyl-stearoyl amide], the “Growth inhibition (% of control)” value in the series with Jurkat cells is 47.3 % of control. In addition, in series [1], the solubility is > 10000 µg/mL and the solubility in water entry is “scarcely soluble”.

For `CCCCCCCCCCCCCCCC(=O)OC(C)C` [Example 10, iso-propyl-palmitate], in series [1], the solubility is > 10000 µg/mL and the solubility in water entry was “scarcely soluble”.

Take `CCCCCCCCCCCCCCCCCC(=O)OCCC` [Example 9, n-propyl-stearate]: in series [1], the solubility is > 10000 µg/mL and the solubility in water entry is “scarcely soluble”.

On to `CCCCCCCCCCCCCCCCCC(=O)OC(C)C` [Example 11, iso-propyl-stearate], for which, in series [1], the solubility was > 10000 µg/mL and the solubility in water result was “scarcely soluble”.
